tested on: not given; assay: not given; details: not given

First: CCC(CC)c1ccc(Cl)c2nc3n(c12)CCCCN3c1ccc(C)cc1C#N [Example 36, 2-[10-Chloro-7-(1-ethylpropyl)-2,3,4,5-tetrahydro-1H-[1,3]diazepino[1,2-a]benzimidazol-1-yl]-5-methylbenzonitrile]
Second: CCC(F)c1ccc(Cl)c2nc3n(c12)CCCN3c1ccc(Cl)cc1Cl (centres unmarked) [Example 304, 9-Chloro-1-(2,4-dichlorophenyl)-6-(1-fluoropropyl)-1,2,3,4-tetrahydropyrimido[1,2-a]benzimidazole]
The melting point of the first is higher: 176 to 180 °C for the first, 172 to 174 °C for the second.

First: CCC(OCC(F)(F)F)c1ccc(Cl)c2nc3n(c12)CCCN3c1ccc(OC)nc1C (centres unmarked) [Example 272, 9-Chloro-1-(6-methoxy-2-methylpyridin-3-yl)-6-[1-(2,2,2-trifluoroethoxy)propyl]-1,2,3,4-tetrahydropyrimido[1,2-a]benzimidazole]
Second: CCOC(c1ccc(Cl)c2nc3n(c12)CCCN3c1ccc(OC)nc1C)C(F)(F)F (centres unmarked) [Example 281, 9-Chloro-6-(1-ethoxy-2,2,2-trifluoroethyl)-1-(6-methoxy-2-methylpyridin-3-yl)-1,2,3,4-tetrahydropyrimido[1,2-a]benzimidazole]
The melting point of the first is lower: 124 to 126 °C for the first, 168 to 170 °C for the second.

First: COc1nc(C)c(N2CCCn3c2nc2c(Cl)ccc(C(NC(=O)C(F)F)C(F)(F)F)c23)c(C)n1 (centres unmarked) [Example 190, N-{1-[9-Chloro-1-(2-methoxy-4,6-dimethylpyrimidin-5-yl)-1,2,3,4-tetrahydropyrimido[1,2-a]benzimidazol-6-yl]-2,2,2-trifluoroethyl}-2,2-difluoroacetamide]
Second: COc1nc(C)c(N2CCCn3c2nc2c(Br)ccc(C(OC(F)F)C(F)(F)F)c23)c(C)n1 (centres unmarked) [Example 519, 9-Bromo-6-[1-(difluoromethoxy)-2,2,2-trifluoroethyl]-1-(2-methoxy-4,6-dimethylpyrimidin-5-yl)-1,2,3,4-tetrahydropyrimido[1,2-a]benzimidazole]
The melting point of the first is lower: 155 to 156 °C for the first, 211 to 213 °C for the second.

Compared with `CCC(O)c1cccc2nc3n(c12)CCCN3c1ccc(Cl)cc1Cl` (centres unmarked) [Example 92, 1-[1-(2,4-Dichlorophenyl)-1,2,3,4-tetrahydropyrimido[1,2-a]benzimidazol-6-yl]propan-1-ol], `CCC(c1cccc2nc3n(c12)CCCN3c1ccc(Cl)cc1Cl)N(C)C` (centres unmarked) [Example 203, 1-[1-(2,4-Dichlorophenyl)-1,2,3,4-tetrahydropyrimido[1,2-a]benzimidazol-6-yl]-N,N-dimethylpropan-1-amine] is lower in melting point: 186 to 188 °C for the first, 144 to 145 °C for the second.

First: O=C1CCCN1c1ccc(Cl)c2nc3n(c12)CCCN3c1ccc(Cl)cc1Cl [Example 195, 1-[9-Chloro-1-(2,4-dichlorophenyl)-1,2,3,4-tetrahydropyrimido[1,2-a]benzimidazol-6-yl]pyrrolidin-2-one]
Second: CCC(O)c1ccc(Cl)c2nc3n(c12)CCCN3c1ccc(Cl)cc1Cl (centres unmarked) [Example 112, 1-[9-Chloro-1-(2,4-dichlorophenyl)-1,2,3,4-tetrahydropyrimido[1,2-a]benzimidazol-6-yl]propan-1-ol]
The melting point of the first is lower: 215 to 216 °C for the first, 244 to 245 °C for the second.

First: CCC(=O)c1cccc2nc3n(c12)CCCN3c1ccc(Cl)cc1Cl [Example 198, 1-[1-(2,4-Dichlorophenyl)-1,2,3,4-tetrahydropyrimido[1,2-a]benzimidazol-6-yl]propan-1-one]
Second: CN(C)C(=O)c1cccc2nc3n(c12)CCCN3c1ccc(Cl)cc1Cl [Example 86, 1-(2,4-Dichlorophenyl)-N,N-dimethyl-1,2,3,4-tetrahydropyrimido[1,2-a]benzimidazole-6-carboxamide]
The melting point of the first is lower: 195 to 196 °C for the first, 212 to 213 °C for the second.

First: Cc1nc(N2CCN(C)CC2)ccc1N1CCCn2c1nc1c(Cl)ccc(C(OC(F)F)C(F)(F)F)c12 (centres unmarked) [Example 297, 9-Chloro-6-[1-(difluoromethoxy)-2,2,2-trifluoroethyl]-1-[2-methyl-6-(4-methylpiperazin-1-yl)pyridin-3-yl]-1,2,3,4-tetrahydropyrimido[1,2-a]benzimidazole]
Second: Cc1nc(NC2CC2)ccc1N1CCCn2c1nc1c(Cl)ccc(C(OC(F)F)C(F)(F)F)c12 (centres unmarked) [Example 299, 5-{9-Chloro-6-[1-(difluoromethoxy)-2,2,2-trifluoroethyl]-3,4-dihydropyrimido[1,2-a]benzimidazol-1(2H)-yl}-N-cyclopropyl-6-methylpyridin-2-amine]
The melting point of the first is higher: 193 to 195 °C for the first, 168 to 170 °C for the second.

Compared with `CCC(NC(=O)C1CC1)c1ccc(Cl)c2nc3n(c12)CCCN3c1ccc(Cl)cc1Cl` (centres unmarked) [Example 441, N-{1-[9-Chloro-1-(2,4-dichlorophenyl)-1,2,3,4-tetrahydropyrimido[1,2-a]benzimidazol-6-yl]propyl}cyclopropanecarboxamide], `CCN(CC)C(=O)c1cccc2nc3n(c12)CCCN3c1ccc(Cl)cc1Cl` [Example 88, 1-(2,4-Dichlorophenyl)-N,N-diethyl-1,2,3,4-tetrahydropyrimido[1,2-a]benzimidazole-6-carboxamide] is lower in melting point: 251 to 253 °C for the first, 183 to 184 °C for the second.

First: CCN(CC)c1cccc2nc3n(c12)CC(CC(=O)O)N3c1ccc(Cl)cc1Cl (centres unmarked) [Example 73, [1-(2,4-Dichlorophenyl)-5-(diethylamino)-2,3-dihydro-1H-imidazo[1,2-a]benzimidazol-2-yl]acetic acid]
Second: CCN(CC)c1cccc2nc3n(c12)CCC(=O)N3c1ccc(Cl)cc1Cl [Example 19, 1-(2,4-Dichlorophenyl)-6-(diethylamino)-3,4-dihydropyrimido[1,2-a]benzimidazol-2(1H)-one]
The melting point of the first is higher: 249 to 251 °C for the first, 113 to 114 °C for the second.

First: COc1nc(C)c(N2CCCn3c2nc2c(OC)ccc(C(OC(F)F)C(F)(F)F)c23)c(C)n1 (centres unmarked) [Example 526, 6-[1-(Difluoromethoxy)-2,2,2-trifluoroethyl]-9-methoxy-1-(2-methoxy-4,6-dimethylpyrimidin-5-yl)-1,2,3,4-tetrahydropyrimido[1,2-a]benzimidazole]
Second: CCC(OC(C)=O)c1ccc(Cl)c2nc3n(c12)CCCN3c1ccc(OC)nc1C (single isomer, unassigned; (+)) [Example 267, (+)-1-[9-Chloro-1-(6-methoxy-2-methylpyridin-3-yl)-1,2,3,4-tetrahydropyrimido[1,2-a]benzimidazol-6-yl]propyl acetate]
The melting point of the first is higher: 201 to 203 °C for the first, 110 to 114 °C for the second.

First: CCC(CC)c1ccc(Cl)c2nc3n(c12)CCN3C(=O)c1c(C)cc(C)cc1C [Example 229, 8-Chloro-5-(1-ethylpropyl)-1-[(2,4,6-trimethylphenyl)carbonyl]-2,3-dihydro-1H-imidazo[1,2-a]benzimidazole]
Second: CCN(CC)c1cccc2nc3n(c12)CCOC3c1ccc(Cl)cc1Cl (centres unmarked) [Example 501, 1-(2,4-Dichlorophenyl)-N,N-diethyl-3,4-dihydro-1H-[1,4]oxazino[4,3-a]benzimidazol-6-amine]
The melting point of the first is higher: 234 to 236 °C for the first, 130 to 131 °C for the second.

Compound `CCC(CC)c1ccc(Cl)c2nc3n(c12)CCN3c1ccc(Cl)cc1C(N)=O` [Example 223, 5-Chloro-2-[8-chloro-5-(1-ethylpropyl)-2,3-dihydro-1H-imidazo[1,2-a]benzimidazol-1-yl]benzamide] has a melting point of over 300 °C.

biological target: T1, human CRF1 receptor (Homo sapiens, UniProt P34998); assay: Measurement of CRF Binding Inhibitory Rate (receptor binding experiment with 125I-CRF); details: human CRF1 receptor expressing CHO cellular membrane fraction, 50 pM 125I-CRF, room temperature 1.5 hr, 0.05 nM to 10 μM of compound; read-out: IC50 values (CRF binding inhibition)
T1 construct: expressed in transfected cells; host or cells: CHO cells (membrane fraction)
T1 sequence (P34998 24-415): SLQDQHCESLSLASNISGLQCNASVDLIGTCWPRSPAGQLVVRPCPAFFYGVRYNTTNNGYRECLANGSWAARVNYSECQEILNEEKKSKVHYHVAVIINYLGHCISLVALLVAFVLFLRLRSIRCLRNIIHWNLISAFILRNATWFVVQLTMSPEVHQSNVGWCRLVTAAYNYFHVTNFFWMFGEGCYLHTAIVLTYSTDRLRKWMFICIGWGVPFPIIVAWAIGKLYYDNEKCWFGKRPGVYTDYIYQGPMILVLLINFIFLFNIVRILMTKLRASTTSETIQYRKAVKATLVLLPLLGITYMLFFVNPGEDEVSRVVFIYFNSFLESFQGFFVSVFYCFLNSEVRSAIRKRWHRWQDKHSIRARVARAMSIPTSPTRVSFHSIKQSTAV

`CCC(CC)c1ccc(Cl)c2nc3n(c12)CCCCN3c1ccc(C)cc1C#N` [Example 36, 2-[10-Chloro-7-(1-ethylpropyl)-2,3,4,5-tetrahydro-1H-[1,3]diazepino[1,2-a]benzimidazol-1-yl]-5-methylbenzonitrile] and `CCC(F)c1ccc(Cl)c2nc3n(c12)CCCN3c1ccc(Cl)cc1Cl` (centres unmarked) [Example 304, 9-Chloro-1-(2,4-dichlorophenyl)-6-(1-fluoropropyl)-1,2,3,4-tetrahydropyrimido[1,2-a]benzimidazole] cannot be ordered by IC50: under 1 µM for the first, under 1 µM for the second.

Work on `CCC(OCC(F)(F)F)c1ccc(Cl)c2nc3n(c12)CCCN3c1ccc(OC)nc1C` (centres unmarked) [Example 272, 9-Chloro-1-(6-methoxy-2-methylpyridin-3-yl)-6-[1-(2,2,2-trifluoroethoxy)propyl]-1,2,3,4-tetrahydropyrimido[1,2-a]benzimidazole] yielded an IC50 of under 1 µM.

— patent publication US8785460B2, “Tricyclic compounds and use thereof” (Takeda Pharmaceutical Company Limited, priority 2008, dated 2014)
